Molecules are shown by their SMILES. ≈ marks a conversion by molar mass, not a printed value. Bounds are passed on as bounds.

Assay type in all cases: functional
In assay [1] the test system is Mycobacterium tuberculosis. In words: Antimycobacterial activity against Mycobacterium tuberculosis NTB1 harboring DprE1 G387S mutant assessed as inhibition of bacterial growth measured after 21 days by microbroth dilution method. Conditions: time 21 day. On the technique in general: Dilution methods test growth across graded concentrations, often in twofold steps.

The subject of assay [2] is Mycobacterium tuberculosis. Kind of assay: Antimycobacterial activity against Mycobacterium tuberculosis DR1 harboring mmpL3 V681I mutant assessed as inhibition of bacterial growth measured after 21 days by microbroth dilution method. Conditions: time 21 day.
The subject of assay [3] is Mycobacterium tuberculosis. In words: Antimycobacterial activity against Mycobacterium tuberculosis 88.7 harboring pyrG V186G mutant assessed as inhibition of bacterial growth measured after 21 days by microbroth dilution method. Conditions: time 21 day.
For assay [4], the system named is Mycobacterium tuberculosis. In words: Antimycobacterial activity against Mycobacterium tuberculosis 53.3 harboring Rv2466c W28S mutant assessed as inhibition of bacterial growth measured after 21 days by microbroth dilution method. Conditions: time 21 day.
The subject of assay [5] is Mycobacterium tuberculosis. Kind of assay: Antimycobacterial activity against Mycobacterium tuberculosis Ty1 harboring Rv3405c C190T mutant assessed as inhibition of bacterial growth measured after 21 days by microbroth dilution method. To be noted: time 21 day.
Assay [6] concerns Mycobacterium tuberculosis. Kind of assay: Antimycobacterial activity against Mycobacterium tuberculosis 81.10 harboring EthA del (1109 to 37 residues) mutant assessed as inhibition of bacterial growth measured after 21 days by microbroth dilution method. Conditions: time 21 day.
In assay [7] the test system is Mycobacterium tuberculosis. In words: Antimycobacterial activity against streptomycin, isoniazid, rifampicin, ethambutol, pyrazinamide, ethionamide and capreomycin resistant Mycobacterium tuberculosis IC2 assessed as inhibition of bacterial growth measured after 21 days by microbroth dilution method. To be noted: IC2, 504 h, time 21 day.

As to `Clc1ccc(CN2CCC(C3c4ccccc4-c4ccccc43)C2)cc1` (centres undefined), the minimal inhibitory concentration (MIC) in assay [1], in assay [2], in assay [3], in assay [4], in assay [5] and in assay [6] was 0.5 mg/L (≈ 1.39 µM) each time. Also, the MIC (as a rule, the smallest concentration in the dilution series that meets the test's criterion for growth inhibition) in assay [7] is 0.5 mg/L (≈ 1.39 µM).

On to `NNC(=O)c1ccncc1` [ISONIAZID], for which the MIC in assay [1], in assay [2], in assay [3], in assay [4], in assay [5] and in assay [6] was 0.025 mg/L (≈ 0.182 µM) throughout. Besides, in assay [7], the MIC is more than 0.2 mg/L.

The values above are taken from ChEMBL document CHEMBL5257033, “Pyrrolidinone and pyrrolidine derivatives: Evaluation as inhibitors of InhA and Mycobacterium tuberculosis” (Eur J Med Chem, 2016).
